Results as given in patent US7932242B2, “Substituted phenoxy-and phenylthio-derivatives for treating proliferative disorders” (Temple University - Of The Commonwealth System of Higher …, priority 2004, dated 2011).
Structures can show the parent of a compound that is named as a salt. Where two headings read alike, the source gives them in different places. One block for each compound: values may come before it.

Columns and labels:
Assay type in all cases: cell-based
[1] = test system: DU145; test: Tumor cell growth inhibition, Trypan blue exclusion, DU145; details: Homo sapiens, cell viability after 96 hours vs vehicle (DMSO)
Protocol: (§1) The effect of Compounds of Formula I on tumor cells of prostate, colon, lung, pancreatic, brain, renal, gastrointestinal, epidermal, lymphocytic, ovary and breast origin was examined by utilizing a variety of cancer cell lines (listed in Table 6). Cells were plated at density levels of 1.0×10^5 cells per well in six-well plates. Cell cultures were maintained at 37° C. in a humidified atmosphere of 5% CO2.
(§2) In addition, DU-145 cells were treated with three additional compounds of the invention: (E)-4-(3-(5-((2,4,6-trimethoxystyrylsulfonyl)methyl)-2-methoxyphenoxy)propyl)morpholine; (E)-5-((2,4,6-trimethoxystyrylsulfonyl)methyl)-2-methoxyphenyl 2-(dimethylamino)acetate; and (E)-5-((2,4,6-trimethoxystyrylsulfonyl)methyl)-2-methoxyphenyl 4-methylbenzenesulfonate, the structures of which are shown in Table 7.
(§3) Values are reported as the GI50, i.e., the concentration (μM) required for 50% growth inhibition as compared to vehicle (DMSO) treated cells. The notations “ER+” and “ER−” designate breast cancer lines that are responsive and non-responsive to estrogen, respectively. The notations “AR+” and “AR−” designate prostate cancer lines that are responsive and non-responsive to androgens, respectively. […] For cell lines designated by “*”, the dose response curve for the compound (E)-5-((2,4,6-trimethoxystyrylsulfonyl)methyl)-2-methoxyphenol (Example 1) is set forth in FIG. 1.

[2] = test system: T47D; test: Tumor cell growth inhibition, Trypan blue exclusion, T47D; details: Homo sapiens, Breast (Er+), cell viability after 96 hours vs vehicle (DMSO)
Protocol: as §1
(§4) Cells of 36 different cell lines were treated with (E)-5-((2,4,6-trimethoxystyrylsulfonyl)methyl)-2-methoxyphenol (Example 1) or (E)-5-((2,4,6-trimethoxystyrylsulfonyl)methyl)-2-methoxy-phenyl dihydrogen phosphate disodium salt (Example 5) at doses ranging from 2 nM to 10 nM concentration, and cell viability was determined after 96 hours by the Trypan blue exclusion method. In addition, DU-145 cells were treated with three additional compounds of the invention: (E)-4-(3-(5-((2,4,6-trimethoxystyrylsulfonyl)methyl)-2-methoxyphenoxy)propyl)morpholine; (E)-5-((2,4,6-trimethoxystyrylsulfonyl)methyl)-2-methoxyphenyl 2-(dimethylamino)acetate; and (E)-5-((2,4,6-trimethoxystyrylsulfonyl)methyl)-2-methoxyphenyl 4-methylbenzenesulfonate, the structures of which are shown in Table 7.
(§5) Values are reported as the GI50, i.e., the concentration (μM) required for 50% growth inhibition as compared to vehicle (DMSO) treated cells. […]

[3] = test system: 2008; test: Tumor cell growth inhibition, Trypan blue exclusion, 2008; details: 2008, Ovarian; cell viability after 96 hours vs vehicle (DMSO)
Protocol: as §1, §4, §5

[4] = test system: HCT-15; test: Tumor cell growth inhibition, Trypan blue exclusion, HCT-15; details: Homo sapiens; HCT-15, Colo-Rectal; cell viability after 96 hours vs vehicle (DMSO)
Protocol: as §1, §4, §5

[5] = test system: A549; test: Tumor cell growth inhibition, Trypan blue exclusion, A549; details: Homo sapiens; A549, Nsclc; cell viability after 96 hours vs vehicle (DMSO)
Protocol: as §1, §4, §5

[6] = test system: OV-CAR-3; test: Tumor cell growth inhibition, Trypan blue exclusion, OV-CAR-3; details: Homo sapiens, OVCAR-3; OV-CAR-3, Ovarian; cell viability after 96 hours vs vehicle (DMSO)
Protocol: as §1, §4, §5

[7] = test system: MIA-PACA2; test: Tumor cell growth inhibition, Trypan blue exclusion, MIA-PACA2; details: Homo sapiens, MIA PaCa-2; MIA-PACA2, Pancreatic; cell viability after 96 hours vs vehicle (DMSO)
Protocol: as §1, §4, §5

[8] = test system: N417; test: Tumor cell growth inhibition, Trypan blue exclusion, N417; details: N417, Sclc; cell viability after 96 hours vs vehicle (DMSO)
Protocol: as §1, §4, §5

[9] = test system: AGS; test: Tumor cell growth inhibition, Trypan blue exclusion, AGS; details: Homo sapiens, Gastric, cell viability after 96 hours vs vehicle (DMSO)
Protocol: as §1, §4, §5

[10] = test system: CEM; test: Tumor cell growth inhibition, Trypan blue exclusion, Cem (second listing); details: Homo sapiens, Leukemic (second listing, parent of Cem/C2), cell viability after 96 hours vs vehicle (DMSO)
Protocol: as §1, §4, §5

[11] = test system: MOLT-4; test: Tumor cell growth inhibition, Trypan blue exclusion, MOLT-4; details: Homo sapiens; MOLT-4, T-Lymphoblastic: All; cell viability after 96 hours vs vehicle (DMSO)
Protocol: as §1, §4, §5

[12] = test system: Raji; test: Tumor cell growth inhibition, Trypan blue exclusion, Raji; details: Homo sapiens, Burkitt's Lymphoma (B-Cell), cell viability after 96 hours vs vehicle (DMSO)
Protocol: as §1, §4, §5

[13] = test system: MCF-7; test: Tumor cell growth inhibition, Trypan blue exclusion, MCF-7; details: Homo sapiens, MCF7; MCF-7, Breast (Er+); cell viability after 96 hours vs vehicle (DMSO)
Protocol: as §1, §4, §5

[14] = test system: Mes-Sa; test: Tumor cell growth inhibition, Trypan blue exclusion, Mes-Sa; details: Homo sapiens, Sarcoma, cell viability after 96 hours vs vehicle (DMSO)
Protocol: as §1, §4, §5

[15] = test system: COLO-320; test: Tumor cell growth inhibition, Trypan blue exclusion, COLO-320; details: Homo sapiens; COLO-320, Colo-Rectal; cell viability after 96 hours vs vehicle (DMSO)
Protocol: as §1, §4, §5

[16] = test system: Mes-Sa/Dx5; test: Tumor cell growth inhibition, Trypan blue exclusion, Mes-Sa/Dx5; details: Homo sapiens; Mes-Sa/Dx5, Resistant Sarcoma; cell viability after 96 hours vs vehicle (DMSO)
Protocol: as §1, §4, §5

[17] = test system: H187; test: Tumor cell growth inhibition, Trypan blue exclusion, H187; details: Homo sapiens, NCI-H187; H187, Sclc; cell viability after 96 hours vs vehicle (DMSO)
Protocol: as §1, §4, §5

[18] = test system: HCT-116; test: Tumor cell growth inhibition, Trypan blue exclusion, HCT-116; details: Homo sapiens; HCT-116, Colo-Rectal; cell viability after 96 hours vs vehicle (DMSO)
Protocol: as §1, §4, §5

[19] = test system: BT20; test: Tumor cell growth inhibition, Trypan blue exclusion, BT20; details: Homo sapiens, BT-20; BT20, Breast (Er−); cell viability after 96 hours vs vehicle (DMSO)
Protocol: as §1, §2, §3

[20] = test system: RF1; test: Tumor cell growth inhibition, Trypan blue exclusion, RF1; details: RF1, Gastric; cell viability after 96 hours vs vehicle (DMSO)
Protocol: as §1, §4, §5

[21] = test system: Cem/C2; test: Tumor cell growth inhibition, Trypan blue exclusion, Cem/C2; details: Homo sapiens; Cem/C2, Resistant Leukemic; cell viability after 96 hours vs vehicle (DMSO)
Protocol: as §1, §4, §5

[22] = test system: SW480; test: Tumor cell growth inhibition, Trypan blue exclusion, SW480; details: Homo sapiens; SW480, Colo-Rectal; cell viability after 96 hours vs vehicle (DMSO)
Protocol: as §1, §4, §5

[23] = test system: SK-MEL-28; test: Tumor cell growth inhibition, Trypan blue exclusion, SK-MEL-28; details: Homo sapiens; SK-MEL-28, Melanoma; cell viability after 96 hours vs vehicle (DMSO)
Protocol: as §1, §4, §5

[24] = test system: RF48; test: Tumor cell growth inhibition, Trypan blue exclusion, RF48; details: RF48, Gastric; cell viability after 96 hours vs vehicle (DMSO)
Protocol: as §1, §4, §5

[25] = test system: CEM; test: Tumor cell growth inhibition, Trypan blue exclusion, CEM; details: Homo sapiens, CCRF-CEM, Leukemic, cell viability after 96 hours vs vehicle (DMSO)
Protocol: as §1, §4, §5

[26] = test system: CAKI-2; test: Tumor cell growth inhibition, Trypan blue exclusion, CAKI-2; details: Homo sapiens; CAKI-2, Renal; cell viability after 96 hours vs vehicle (DMSO)
Protocol: as §1, §4, §5

[27] = test system: LNCAP; test: Tumor cell growth inhibition, Trypan blue exclusion, LNCAP; details: Homo sapiens, Prostate (Ar+), cell viability after 96 hours vs vehicle (DMSO)
Protocol: as §1, §4, §5

[28] = test system: Sk-OV-3; test: Tumor cell growth inhibition, Trypan blue exclusion, Sk-OV-3; details: Homo sapiens; Sk-OV-3, Ovarian; cell viability after 96 hours vs vehicle (DMSO)
Protocol: as §1, §4, §5

[29] = test system: Daudi; test: Tumor cell growth inhibition, Trypan blue exclusion, Daudi; details: Homo sapiens, Burkitt's Lymphoma (B-Cell), cell viability after 96 hours vs vehicle (DMSO)
Protocol: as §1, §4, §5

[30] = test system: 2008/17/4; test: Tumor cell growth inhibition, Trypan blue exclusion, 2008/17/4; details: 2008/17/4, Resistant Ovarian; cell viability after 96 hours vs vehicle (DMSO)
Protocol: as §1, §4, §5

[31] = test system: DLD-1; test: Tumor cell growth inhibition, Trypan blue exclusion, DLD-1; details: Homo sapiens; DLD-1, Colo-Rectal; cell viability after 96 hours vs vehicle (DMSO)
Protocol: as §1, §4, §5

[32] = test system: K562; test: Tumor cell growth inhibition, Trypan blue exclusion, K562; details: Homo sapiens; K562, Cml; cell viability after 96 hours vs vehicle (DMSO)
Protocol: as §1, §4, §5

[33] = test system: U87; test: Tumor cell growth inhibition, Trypan blue exclusion, U87; details: Homo sapiens, U-87 MG; U87, Glioblastoma; cell viability after 96 hours vs vehicle (DMSO)
Protocol: as §1, §4, §5

[34] = test system: Namalwa; test: Tumor cell growth inhibition, Trypan blue exclusion, Namalwa; details: Burkitt's Lymphoma (B-Cell), cell viability after 96 hours vs vehicle (DMSO)
Protocol: as §1, §4, §5

[35] = test system: H157; test: Tumor cell growth inhibition, Trypan blue exclusion, H157; details: Homo sapiens, NCI-H157; H157, Nsclc; cell viability after 96 hours vs vehicle (DMSO)
Protocol: as §1, §4, §5

[36] = test system: PC-3; test: Tumor cell growth inhibition, Trypan blue exclusion, PC-3; details: Homo sapiens; PC-3, Prostate; cell viability after 96 hours vs vehicle (DMSO)
Protocol: as §1, §4, §5

[37] = DU-145 cells, Table 7, read-out: DU-145 GI50
[38] = DU-145, DU145, Prostate (Ar−), read-out: GI50

SMILES: COc1cc(OC)c(/C=C/S(=O)(=O)Cc2ccc(OC)c(O)c2)c(OC)c1 [Example 1, (E)-5-((2,4,6-trimethoxystyrylsulfonyl)methyl)-2-methoxyphenol]
- GI50 [2]: 10 nM
- GI50 [1, 38]: 5 nM
- GI50 [3]: 5 nM
- GI50 [4]: 7 nM
- GI50 [5]: 10 nM
- GI50 [6]: 30 nM
- GI50 [7]: 3 nM
- GI50 [8]: 3 nM
- GI50 [9]: 5 nM
- GI50 [10]: 4 nM
- GI50 [11]: 3 nM
- GI50 [12]: 1 nM
- GI50 [13]: 10 nM
- GI50 [14]: 5 nM
- GI50 [15]: 3 nM
- GI50 [16]: 5 nM
- GI50 [17]: 3 nM
- GI50 [18]: 6 nM
- GI50 [19]: 80 nM
- GI50 [20]: 3 nM
- GI50 [21]: 3 nM
- GI50 [22]: 5 nM
- GI50 [23]: 7 nM
- GI50 [24]: 1 nM
- GI50 [25]: 4 nM
- GI50 [26]: 6 nM
- GI50 [27]: 10 nM
- GI50 [28]: 4 nM
- GI50 [29]: 3 nM
- GI50 [30]: 6 nM
- GI50 [31]: 7 nM
- GI50 [32]: 4 nM
- GI50 [33]: 7 nM
- GI50 [34]: 3 nM
- GI50 [35]: 7 nM
- GI50 [36]: 5 nM

SMILES: COc1cc(OC)c(/C=C/S(=O)(=O)Cc2ccc(OC)c(OP(=O)(O)O)c2)c(OC)c1 [Example 5, (E)-5-((2,4,6-trimethoxystyrylsulfonyl)methyl)-2-methoxyphenyl dihydrogen phosphate, disodium salt]
- GI50 [1, 38]: 5 nM
- GI50 [4]: 12 nM
- GI50 [5]: 20 nM
- GI50 [7]: 4 nM
- GI50 [8]: 4 nM
- GI50 [9]: 9 nM
- GI50 [19]: 8 nM
- GI50 [23]: 12 nM
- GI50 [31]: 12 nM
- GI50 [33]: 9 nM
- GI50 [35]: 12 nM

Continued, values first:

- GI50 [1, 37]: > 10000 nM
SMILES: COc1cc(OC)c(/C=C/S(=O)(=O)Cc2ccc(OC)c(OCCCN3CCOCC3)c2)c(OC)c1 [(E)-4-(3-(5-((2,4,6-trimethoxystyrylsulfonyl)methyl)-2-methoxyphenoxy)propyl)morpholine]

- GI50 [1, 37]: 4 to 10 nM
SMILES: COc1cc(OC)c(/C=C/S(=O)(=O)Cc2ccc(OC)c(OC(=O)CN(C)C)c2)c(OC)c1 [(E)-5-((2,4,6-trimethoxystyrylsulfonyl)methyl)-2-methoxyphenyl 2-(dimethylamino)acetate]

- GI50 [1, 37]: > 1000 nM
SMILES: COc1cc(OC)c(/C=C/S(=O)(=O)Cc2ccc(OC)c(OS(=O)(=O)c3ccc(C)cc3)c2)c(OC)c1 [(E)-5-((2,4,6-trimethoxystyrylsulfonyl)methyl)-2-methoxyphenyl 4-methylbenzenesulfonate]
